From patent US7208505B2, “β3 adrenergic agonists” (Eli Lilly and Company, priority 2001, dated 2007)

What follows are compounds tested against T1, human β3 adrenergic receptor (Homo sapiens, UniProt P13945) (assay: whole cell receptor coupled c-AMP assay (Emax relative to isoproterenol)). Conditions: % intrinsic activity: maximal response divided by isoproterenol maximal response times 100; transfected CHO cells; average of at least 3 runs.
T1 construct: expressed in transfected cells
Type: cell-based
Source text: The genes encoding the human β1-adrenergic receptor (Frielle et al., Proc. Natl. Acad. Sci., 84:7920–7924, 1987), the human β2-adrenergic receptor (Kobika et al., Proc. Natl. Acad. Sci., 84:46–50, 1987, Emorine et al., Proc. Natl. Acad. Sci., 84:6995–6999, 1987) and the human β3 adrenergic receptor (Granneman et al., Molecular Pharmacology, 44(2):264–70, 1993) are individually subcloned into a phd expression vector (Grinnell et al., Bio/Technology, 5:1189–1192, 1987) and transfected into the DXB-11 Chinese hamster ovary (CHO) cell line by calcium phosphate precipitation methodology. The stably transfected cells are grown to 95% confluency in 95% Dulbecco's modified Eagles Medium (DMEM), 5% fetal bovine serum and 0.01% proline. Media is removed and the cells are washed with phosphate buffered (pH 7.4) saline (without magnesium and calcium). Cells are then lifted using an enzyme free cell dissociation solution (Specialty Media, Lavallette, N.J.) and pelleted by centrifugation.
Cells from each of the above cell lines are resuspended and added (20,000/well) to a 96-well plate. Cells are incubated at 37° C. with representative compounds of the invention for 20 minutes in buffer (Hank's balanced salt solution, 10 mM HEPES, 0.1% BSA, 1 mM L-ascorbic acid, 0.2% dimethyl sulfoxide, 1 mM 3-isobutyl-1-methylxanthine, pH 7.4). After halting the incubation with quench buffer (50 mM Na Acetate, 0.25% Triton X-100, pH 5.8), the c-AMP level is quantified by scintillation proximity assay (SPA) using a modification of the commercially available c-AMP kit (Amersham, Arlington Heights, Ill.) with rabbit anti-cAMP antibody (ICN Biomedicals, Aurora, Ohio) for the kit.
Sigmoidal dose response curves, from the whole cell receptor coupled c-AMP assay are fit to a four parameter logistic equation using non linear regression: y=(a−d)/(1+(Dose/c)^b)+d where a and d are responses at zero and maximal dose, b is the slope factor and c is the EC50 as previously described (DeLean et al., Am. J. Physiol., 235, E97-E102, 1978). EC50 is assessed as the concentration producing 50% of the maximum response to each agonist.
Isoproterenol is accepted in the art as a non-selective β3 agonist and is widely used as a comparator in evaluating the activity of compounds. See Trends in Pharm. Sci., 15:3, 1994. The % intrinsic activity (Emax) of representative compounds of the invention is assessed relative to isoproterenol by the compound's maximal response divided by the isoproterenol maximal response times 100.

T1 sequence (P13945 whole entry): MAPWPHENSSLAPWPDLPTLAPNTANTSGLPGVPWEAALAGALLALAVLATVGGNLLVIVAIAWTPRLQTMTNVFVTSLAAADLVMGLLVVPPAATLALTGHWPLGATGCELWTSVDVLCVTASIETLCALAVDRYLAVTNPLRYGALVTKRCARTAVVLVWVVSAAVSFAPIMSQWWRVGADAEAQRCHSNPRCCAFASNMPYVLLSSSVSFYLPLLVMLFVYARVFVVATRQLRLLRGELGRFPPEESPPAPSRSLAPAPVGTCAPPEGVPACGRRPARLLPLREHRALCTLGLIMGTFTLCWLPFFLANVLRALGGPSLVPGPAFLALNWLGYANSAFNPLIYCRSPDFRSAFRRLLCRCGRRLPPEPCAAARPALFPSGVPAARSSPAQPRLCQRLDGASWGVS

SMILES	Emax (%) ± SEM [%]
CC(C)(Cc1c[nH]c2ccccc12)NC[C@H](O)COc1ccccc1-c1ccns1 [Example 83]	73.7 ± 2.0
Cc1cc(-c2ccccc2OC[C@@H](O)CNC(C)(C)Cc2c[nH]c3c(OCC#N)cccc23)cs1.O=C(O)C(F)(F)F [Example 18]	52.3 ± 0.7
CC(C)(Cc1c[nH]c2c(F)cccc12)NC[C@H](O)COc1ccccc1-c1ccon1 [Example 173]	50.2 ± 1.5
CC(C)(Cc1c[nH]c2ccccc12)NC[C@H](O)COc1ccccc1-c1cscn1 [Example 79]	58.2 ± 2.3
CC(C)(Cc1c[nH]c2c(NS(=O)(=O)c3ccccc3)cccc12)NC[C@H](O)COc1ccccc1-c1ccon1 [Example 26]	70.9 ± 5.4
CC(C)(Cc1c[nH]c2c(Oc3ccc(C#N)cn3)cccc12)NC[C@H](O)COc1ccccc1-c1ccon1 [Example 116]	58.1 ± 1.6
CC(C)(Cc1c[nH]c2ccccc12)NC[C@H](O)COc1ccccc1-n1ccc(C#N)c1 [Example 35]	50.3 ± 2.2
Cc1cc(-c2ccccc2OC[C@@H](O)CNC(C)(C)Cc2c[nH]c3ccccc23)cs1.O=C(O)C(F)(F)F [Example 17]	43.1 ± 3.0
CC(C)(Cc1c[nH]c2ccccc12)NC[C@H](O)COc1ccccc1-c1nccs1 [Example 68]	53.2 ± 1.6
Cc1cc2c(OCC#N)cccc2n1C[C@@H](C)NC[C@H](O)COc1ccccc1-c1cccs1 [Example 156]	41.9 ± 9.3
CC(C)(Cc1c[nH]c2c(C(=O)O)cccc12)NC[C@H](O)COc1ccccc1-c1ccc(S(N)(=O)=O)s1 [Example 54]	79.0 ± 3.5
CC(C)(Cc1c[nH]c2c(OCC#N)cccc12)NC[C@H](O)COc1ccccc1-c1ccon1 [Example 133]	60.6 ± 2.4
CC(C)(Cc1c[nH]c2c(OCC#N)cccc12)NC[C@H](O)COc1ccccc1-c1cocn1.O=C(O)C(F)(F)F [Example 6]	55.0 ± 3.4
CC(C)(Cc1c[nH]c2ccc(OCC#N)cc12)NC[C@H](O)COc1ccccc1-c1cccs1 [Example 169]	51.9 ± 3.4
CC(C)(Cc1c[nH]c2ccccc12)NC[C@H](O)COc1ccccc1-c1csc(C#N)c1.O=C(O)C(F)(F)F [Example 15]	50.2 ± 7.3
CC(C)(Cc1c[nH]c2c(NS(C)(=O)=O)cccc12)NC[C@H](O)COc1ccccc1-c1ccon1 [Example 28]	58.5 ± 0.5
C[C@H](Cn1ccc2c(OCC#N)cccc21)NC[C@H](O)COc1ccccc1-c1ccon1 [Example 150]	46.6 ± 1.9
COC(=O)c1ccc2c(ccn2C[C@@H](C)NC[C@H](O)COc2ccccc2-c2cccs2)c1 [Example 154]	32.4 ± 8.1

The next lines start with the values.

Emax (%) ± SEM [%]	SMILES
69.0 ± 2.2	CC(C)(Cc1c[nH]c2c(-c3ccc(C(N)=O)cc3)cccc12)NC[C@H](O)COc1ccccc1-c1cccs1 [Example 102]
38.5 ± 2.3	COC(=O)c1ccc(-c2cccc3c(CC(C)(C)NC[C@H](O)COc4ccccc4-c4ccon4)c[nH]c23)cc1 [Example 44]
67.6 ± 3.9	COC(=O)c1ccc(Oc2cccc3c(CC(C)(C)NC[C@H](O)COc4ccccc4-c4cccs4)c[nH]c23)nc1 [Example 117]
57.1 ± 5.8	CC(C)(Cc1c[nH]c2ccc(F)cc12)NC[C@H](O)COc1ccccc1-c1cccs1 [Example 163]
77.9 ± 0.7	CC(C)(Cc1c[nH]c2c(CCc3ccc(C#N)cc3)cccc12)NC[C@H](O)COc1ccccc1-c1cccs1 [Example 187]
60.4 ± 6.0	CC(=O)c1ccc(-c2cccc3c(CC(C)(C)NC[C@H](O)COc4ccccc4-c4cccs4)c[nH]c23)cc1 [Example 48]
67.6 ± 5.2	COC(=O)c1cccc2c(CC(C)(C)NC[C@H](O)COc3ccccc3-c3cccs3)c[nH]c12 [Example 76]
83.3 ± 4.0	CC(C)(Cc1c[nH]c2c(Oc3ccc(C#N)cn3)cccc12)NC[C@H](O)COc1ccccc1-c1cccs1 [Example 115]
57.6 ± 0.6	CC(C)(Cc1c[nH]c2c(C(N)=O)cccc12)NC[C@H](O)COc1ccccc1-c1cccs1 [Example 174]
32.1 ± 3.3	CC(C)(CNC(=O)c1c[nH]c2ccccc12)NC[C@H](O)COc1ccccc1-c1cccs1 [Example 73]
72.1 ± 5.0	CC(C)(Cc1c[nH]c2c(Oc3cc(C#N)ccn3)cccc12)NC[C@H](O)COc1ccccc1-c1cccs1 [Example 114]
69.2 ± 2.0	CC(=O)c1cccc(-c2cccc3c(CC(C)(C)NC[C@H](O)COc4ccccc4-c4ccon4)c[nH]c23)c1 [Example 47]
44.2 ± 1.2	CC(=O)c1ccc(-c2cccc3c(CC(C)(C)NC[C@H](O)COc4ccccc4-c4ccon4)c[nH]c23)cc1 [Example 49]
68.2 ± 2.2	CC(=O)c1cccc(-c2cccc3c(CC(C)(C)NC[C@H](O)COc4ccccc4-c4cccs4)c[nH]c23)c1 [Example 46]
69.6 ± 4.8	CC(C)(Cc1c[nH]c2cc(F)ccc12)NC[C@H](O)COc1ccccc1-c1cccs1 [Example 158]
56.0 ± 1.5	CC(C)(Cc1c[nH]c2c(F)cccc12)NC[C@H](O)COc1ccccc1-c1nccs1 [Example 171]
73.8 ± 1.5	CC(C)(Cc1c[nH]c2c(OCCNS(C)(=O)=O)cccc12)NC[C@H](O)COc1ccccc1-c1cccs1 [Example 177]
71.5 ± 1.1	CC(=O)Nc1ccc(-c2cccc3c(CC(C)(C)NC[C@H](O)COc4ccccc4-c4cccs4)c[nH]c23)cc1 [Example 179]

Same assay, conditions: CHO, % intrinsic activity relative to isoproterenol; transfected CHO cells

Emax [%]	SMILES
73.8	CC(C)(Cc1c[nH]c2c(OCC(=O)O)cccc12)NC[C@H](O)COc1ccccc1-n1cccc1 [Example 203]

Same assay, conditions: CHO, % intrinsic activity: maximal response divided by isoproterenol maximal response times 100; transfected CHO cells; average of at least 3 runs

SMILES	Emax [%]
CC(C)(Cc1c[nH]c2c(Oc3ccc(C(=O)O)cn3)cccc12)NC[C@H](O)COc1ccccc1-c1ccon1 [Example 244]	77 ± 2.1
CC(C)(Cc1c[nH]c2c(OCC(=O)O)cccc12)NC[C@H](O)COc1ccccc1-c1nccs1 [Example 234]	66.4 ± 6.4
CC(C)(Cc1c[nH]c2ccccc12)NC[C@H](O)COc1ccccc1-c1ccc(C(=O)O)s1 [Example 221]	74.6 ± 3.6

The next lines start with the values.

Emax [%]	SMILES
70.1 ± 0.6	CC(C)(Cc1c[nH]c2c(C(=O)O)cccc12)NC[C@H](O)COc1ccccc1-c1cccs1 [Example 241]
68.8 ± 7.8	CC(C)(Cc1c[nH]c2c(-c3cccc(C(=O)O)c3)cccc12)NC[C@H](O)COc1ccccc1-c1ccon1 [Example 249]
86.3 ± 3.4	CC(C)(Cc1c[nH]c2c(CCc3ccc(-c4nnn[nH]4)cc3)cccc12)NC[C@H](O)COc1ccccc1-c1cccs1 [Example 251]
92.5 ± 5.1	CC(C)(Cc1c[nH]c2c(-c3ccc(C(=O)O)s3)cccc12)NC[C@H](O)COc1ccccc1-c1cccs1 [Example 250]
79.5 ± 1.7	CC(C)(Cc1c[nH]c2c(CCc3nnn[nH]3)cccc12)NC[C@H](O)COc1ccccc1-c1cccs1 [Example 232]
80.9 ± 4.9	CC(C)(Cc1c[nH]c2c(CCc3ccc(S(N)(=O)=O)cc3)cccc12)NC[C@H](O)COc1ccccc1-c1cccs1 [Example 254]
83 ± 2.5	CC(C)(Cc1c[nH]c2c(OCc3nnn[nH]3)cccc12)NC[C@H](O)COc1ccccc1-c1cccs1 [Example 229]
73.9 ± 2.9	CC(C)(Cc1c[nH]c2ccc(OCC(=O)O)cc12)NC[C@H](O)COc1ccccc1-c1cccs1 [Example 237]
